What is called IC50 is the concentration at which inhibition is half-maximal.

For this test, the target named is T1, Recombinant human LTC4 synthase (Homo sapiens, UniProt Q16873).
T1 construct: made in house; host or cells: Pichia pastoris ('Piccia pastoralis' [sic])
T1 sequence (Q16873 1-150): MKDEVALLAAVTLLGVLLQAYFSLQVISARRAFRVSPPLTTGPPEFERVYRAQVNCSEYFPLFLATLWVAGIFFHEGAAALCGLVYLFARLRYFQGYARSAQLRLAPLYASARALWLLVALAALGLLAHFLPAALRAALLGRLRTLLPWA
In words: LTC4 synthase assay (conversion of LTA4 methyl ester to LTC4 methyl ester, HPLC). The format is biochemical. Conditions: biological test described above; PBS pH 7.4 with 5 mM GSH, substrate LTA4 methyl ester. As for the experimental part:
In the assay LTC4 synthase catalyses the reaction where the substrate LTA4 methyl ester is converted to LTC4 methyl ester. Recombinant human LTC4 synthase is expressed in Piccia pastoralis and the purified enzyme is dissolved in 25 mM Tris-buffer pH 7.8 and stored at −20° C. The assay is performed in phosphate buffered saline (PBS) pH 7.4, supplemented with 5 mM glutathione (GSH). The reaction is terminated by addition of acetonitrile/MeOH/acetic acid (50/50/1). The assay is performed at it in 96-well plates. Analysis of the formed LTC4 methyl ester is performed with reversed phase HPLC (Waters 2795 utilizing an Onyx Monolithic C18 column). The mobile phase consists of acetonitrile/MeOH/H2O (32.5/30/37.5) with 1% acetic acid pH adjusted with NH3 to pH 5.6, and absorbance measured at 280 nm with a Waters 2487 UV-detector.
The following is added chronologically to each well: • 1. 50 μl assay buffer, PBS with 5 mM GSH. • 2. 0.5 μl inhibitor in DMSO. • 3. 2 μl LTC4 synthase in PBS. The total protein concentration in this solution is 0.025 mg/ml. Incubation of the plate at room temperature for 10 minutes. • 4. 0.5 μl LTA4 methyl ester. Incubation of the plate at it for 1 min. • 5. 50 μl stop solution. 80 μl of the incubation mixture is analysed with HPLC.
With `COc1cccc(NC(=O)Nc2ccc(Cc3ccc(NC(=O)Nc4cccc(OC)c4)c(C(=O)O)c3)cc2C(=O)O)c1` [Example 55, 5,5′-methylenebis-(2-(3-(3-methoxyphenyl)-ureido)benzoic acid)], the IC50 amounted to 1800 nM.
In the case of `CC(C)Oc1ccc(Nc2ccc(Cc3ccc(N)c(C(=O)O)c3)cc2C(=O)O)cc1` [Example 27, 2-amino-5-(3-carboxy-4-(4-isopropoxy-phenylamino)benzyl)benzoic acid], the IC50 was 6410 nM.
Regarding `O=C(O)c1cc(Cc2ccc(NS(=O)(=O)c3cc(C(F)(F)F)cc(C(F)(F)F)c3)c(C(=O)O)c2)ccc1NS(=O)(=O)c1cc(C(F)(F)F)cc(C(F)(F)F)c1` [Example 74, 5,5′-methylenebis(2-(3,5-bis(trifluoromethyl)-phenylsulfonamido)benzoic acid)], the IC50 was 700 nM.
For `Nc1ccc(Cc2ccc(Nc3ccc(F)c(Cl)c3)c(C(=O)O)c2)cc1C(=O)O` [Example 6, 2-amino-5-(3-carboxy-4-(3-chloro-4-fluorophenylamino)benzyl)benzoic acid], the IC50 stood at 5700 nM.
Then `Nc1ccc(Cc2ccc(Nc3ccc(F)cc3)c(C(=O)O)c2)cc1C(=O)O` [Example 12, 2-amino-5-(3-carboxy-4-(4-fluoro-phenylamino)benzyl)benzoic acid], with 2800 nM; and `Cc1ccc(CNc2ccc(Cc3ccc(NCc4ccc(C)cc4)c(C(=O)O)c3)cc2C(=O)O)cc1` [Example 89, 5-(3-Carboxy-4-(4-methyl-benzylamino)-benzyl)-2-(4-methyl-benzylamino)-benzoic acid], with 3400 nM; and `CC(=O)Nc1ccc(S(=O)(=O)Nc2ccc(Cc3ccc(NS(=O)(=O)c4ccc(NC(C)=O)c(Cl)c4)c(C(=O)O)c3)cc2C(=O)O)cc1Cl` [Example 67, 5,5′-methylenebis(2-(4-acetamido-3-chlorophenylsulfonamido)benzoic acid)], with 2800 nM.
Regarding `O=C(O)c1cc(Cc2ccc(NS(=O)(=O)c3ccccc3C(F)(F)F)c(C(=O)O)c2)ccc1NS(=O)(=O)c1ccccc1C(F)(F)F` [Example 69, 5,5′-methylenebis(2-(2-(trifluoromethyl)phenylsulfonamido)benzoic acid)], the IC50 stood at 1300 nM.
In the case of `Nc1ccc(Cc2ccc(Nc3ccc(Br)cc3F)c(C(=O)O)c2)cc1C(=O)O` [Example 8, 2-amino-5-(4-(4-bromo-2-fluorophenyl-amino)-3-carboxybenzyl)benzoic acid], the IC50 came to 740 nM.
`O=C(Nc1ccc(Cc2ccc(NC(=O)Nc3c(Cl)cccc3Cl)c(C(=O)O)c2)cc1C(=O)O)Nc1c(Cl)cccc1Cl` [Example 62, 5,5′-methylenebis-(2-(3-(2,6-dichlorophenyl)-ureido)benzoic acid)]: the IC50 came to 5800 nM.
On to `O=C(O)c1ccccc1Nc1ccc(Cc2ccc(Nc3ccccc3C(=O)O)c(C(=O)O)c2)cc1C(=O)O` [Example 9, 5,5′-methylenebis(2-(2-carboxyphenyl-amino)benzoic acid)], for which the IC50 amounted to 3400 nM.
As to `O=C(O)c1cc(Cc2ccc(NCc3cccc(OCc4ccccc4)c3)c(C(=O)O)c2)ccc1NCc1cccc(OCc2ccccc2)c1` [Example 93], the IC50 was found to be 2300 nM.
Consider `O=C(Nc1ccccc1F)Nc1ccc(Cc2ccc(NC(=O)Nc3ccccc3F)c(C(=O)O)c2)cc1C(=O)O` [Example 57, 5,5′-methylenebis-(2-(3-(2-fluorophenyl)-ureido)benzoic acid)], for which the IC50 worked out at 4000 nM.

The values are drawn from patent publication US20100144872A1, “New Methylenebisphenyl Compounds Useful in the Treatment of Inflammation” (Biolipox AB, priority 2007, published 2010).
